# Experimental data: a melting point compilation (Tetko et al.; mined from patent text by program, amines drawn as free bases though some values may be those of a salt)
row,Compound,melting point
1,Cc1onc(C(=O)c2ccccc2)c1NC(=O)CCl,86 to 88 °C
2,CCC1=C(c2cccc(F)c2)C(=O)N(c2ccc(Cl)c(C(F)(F)F)c2)C1,126 to 129 °C
3,C=CCC(C(=O)NC)c1ccc(F)cc1 (stereo not drawn),104 to 105 °C
4,O=C(Cc1cccc(C(=O)O)c1)Nc1cccc(/C=C/c2nc(C3CCC3)cs2)c1,208 to 209 °C
5,COc1ccc(C2=NN(c3ccccc3C)C(=O)[C@H]3CC=CC[C@@H]23)cc1OC (relative stereo),144 to 145 °C
6,COc1cc(-c2ccccc2C)cc2oc(=O)c(C)c(C)c12,145 °C
7,Cc1cc2c(cc1C)OC(CCN1CCC3(CC1)CNC(=O)CO3)CO2 (stereo not drawn),164 to 166 °C
8,CN(C)Cc1cnc2n1-c1ccc(Br)cc1C(c1ccccn1)=NC2,200 to 202 °C
9,Cc1csc2c(S(N)(=O)=O)c(C(N)=O)nn12,> 270 °C
10,CCOC(=O)C(C)Cc1cccc(-c2nc(=O)c3ccccc3s2)n1 (stereo not drawn),120 to 121 °C
11,COC(=O)C=Cc1cc2ccccc2o1,84 to 86 °C
12,CC1(c2ccc(C(O)C(C)(C)C)cc2)OCCO1 (stereo not drawn),75 to 80 °C
13,O=C(O)c1ccc(C(F)F)c2ccccc12,179 to 180 °C
14,Cc1cc(SC2=C(O)CC(CCc3ccc(O)cc3)(C3CCCC3)OC2=O)c(C(C)(C)C)cc1CO (stereo not drawn),199 to 201 °C
15,O=C(Cc1ccccc1[N+](=O)[O-])c1ccccc1F,84 to 86 °C
16,CCOC(=O)Cn1cc(Cc2cccc([N+](=O)[O-])c2)c2ccccc21,163 to 165 °C
17,Clc1ccc(-c2nc(-c3ccccc3)sc2CBr)cc1,108 to 109 °C
18,Cc1c(C#N)c(=O)oc2c(C)c(O)c(CC(Br)CBr)cc12 (stereo not drawn),175 to 176 °C
19,C[C@H](NC(=O)OCc1ccccc1)C(=O)N[C@@H](C)C(=O)Nc1ccccc1,219 to 221 °C
20,Cc1c(-n2ccnc2)n(CCOc2ccc(C(=O)O)cc2)c2ccccc12,> 300 °C
21,Cc1c(-c2ccncc2)c(-c2ccc(F)cc2)n2c1SCC2,208 °C
22,C=CCOc1ccc(-c2cc3[nH]c4c(c(=O)n3n2)CN(C2CCCCC2)C4=O)cc1,> 320 °C
23,Cc1cc(C)c(Cc2cnc(NCCCCc3ncc(Br)cc3C)[nH]c2=O)cn1,110 to 112 °C
24,CC(C)(O)CNC(=O)CC1CN=C(c2cc3cc(Oc4ccc(S(C)(=O)=O)nc4)ccc3[nH]2)S1 (stereo not drawn),178 to 179 °C
25,Nc1c(Br)cc(C2=NNC(=O)Cc3cc4c(cc32)OCO4)cc1Br,162 to 165 °C

row,Compound,melting point
1,Cc1c(C(=O)Nc2ccc(N3CCN(CCOCCO)CC3)c(C#N)c2)cnn1-c1ccc(Cl)cc1,196 °C
2,C#CCNc1ccc([N+](=O)[O-])cc1,150 to 153 °C
3,O=C(Nc1ccc2ccc(-c3ccc(Cl)c(Cl)c3)nc2n1)c1cccc(Br)c1,176 to 178 °C
4,N#CN1CCC(c2n[nH]c3cc(Cl)ccc23)CC1,180 to 188 °C
5,C#Cc1ccc(Nc2c(-c3nnc(NCCO)o3)ccc(F)c2F)c(F)c1,112 to 115 °C
6,CCOC(=O)C(CCC(=O)O)(CCC(=O)O)C(=O)OCC,120 °C
7,COC(=O)c1cc(Cl)c(N)cc1O,138 to 139 °C
8,COCC1(C)CC(=O)c2cc(C#N)ccc2O1 (stereo not drawn),79 to 81 °C
9,CC(C)n1nc(-c2nc(C(N)=O)c(N)nc2-c2ccccc2Br)ccc1=O,132 to 135 °C
10,CC(C)OC(=O)c1ccccc1SN(C(=O)NC(=O)c1ccccc1Cl)c1ccc(OC(F)(F)F)cc1,143 to 144 °C
11,O=Cc1ccc(OCc2ccc3ccccc3n2)cc1,69 to 72 °C
12,COc1ccc(CSc2ccncc2)c2c1OCC2C (stereo not drawn),110 to 112 °C
13,CC(C)c1c(CO)c(-c2ccc(F)cc2)c2ccccn12,90 to 92 °C
14,CCn1c(C(F)(F)F)n[nH]c1=O,54 °C
15,COCCNC(=O)c1cccc(-c2cccc3c(C)c(Cc4cccc(C(F)(F)F)c4)sc23)c1,135 to 136 °C
16,CCCc1nn(C)c2c(=O)n(CCCNc3ccc(OC(C)(C)C(=O)O)cc3)c(C)nc12,104 to 106 °C
17,CCN(CC)c1ccc([N+](=O)[O-])c(N2CCN(C(C)=O)CC2)n1,120 °C
18,N#CCC1OC(n2cnc3c(NN4CCCCC4)nc(Cl)nc32)C(O)C1O (stereo not drawn),192 to 193 °C
19,O=[N+]([O-])c1ccc2c(c1)S(=O)(=O)c1cc(F)ccc1-2,275 to 279 °C
20,O=C(O)/C=C/c1cc(F)c2ncc(C(=O)NCc3ccc(Cl)cc3)c(O)c2c1,296 to 298 °C
21,NC(=O)NCCn1cc(Cn2ccnc2)c2ccccc21,153 to 154 °C
22,Nc1ccc(Sc2cccc3cnccc23)cc1NCc1ccccc1,125 to 127 °C
23,Nc1ncccc1-c1nc2cc(C3CCCC3)cnc2n1-c1ccc(CNC(=O)c2ccccc2)cc1,210 to 211 °C
24,COc1cc2oc(=O)cc(CN3CCC(OC)CC3)c2cc1OC,148 to 150 °C
25,CCC(CC)(COc1nn2ncnc2cc1C)CS(N)(=O)=O,189 to 192 °C

row,Compound,melting point
1,CCOC(=O)Cc1ccccc1Oc1ccc(COc2cc(CC)nc3c2CCCC3)cc1,89 to 90 °C
2,CN1CC(c2ccc(Cc3ccc(F)cc3)cn2)=C(O)C1=O,204 to 206 °C
3,CN1C(=O)C2C3CCC(C3)C2(c2ccc(N)cc2)C1=O (stereo not drawn),131 to 133 °C
4,NC(=O)c1ncn2c1[C@@H]1CCN1C(=O)c1c-2ccc(F)c1Cl,296 to 298 °C
5,CCOc1ccc(-n2nc(C(F)(F)F)nc2-c2ccc(S(C)(=O)=O)cc2)cc1,112 °C
6,CCCCCCCCCCCCCCC(=O)C(=O)N[C@H](C(=O)NCC(=O)O)C(C)C,87 to 89 °C
7,Nc1cc(NC(=O)Nc2ccccc2)ccn1,> 290 °C
8,O=C(O)C1CC(=C2CCN(c3ccccc3)C2=O)c2ccc(Cl)cc2N1 (stereo not drawn),> 200 °C
9,NC(=O)c1ccc(C(F)(F)F)c(N)c1,147 to 149 °C
10,CCOC(=O)c1cnn2c1c(OCCCN(C)C)nc1ccccc12,78 to 81 °C
11,CC(C)(C)OC(=O)CN1C(=O)C(NC(=O)Nc2cccc(Cl)c2)CC(c2ccccc2)CC1Cc1ccccc1 (stereo not drawn),95 to 110 °C
12,COc1ccc(C=CC(=O)c2cccc(OCCCCCBr)c2)cc1,83 to 84 °C
13,CC(C)(C)C(O)C(Cn1cncn1)Oc1ccc(Cl)cc1 (stereo not drawn),103 °C
14,COc1cc(OCCCN(C)C)ccc1C(=O)NN,47 to 52 °C
15,C=C(C)C(=O)c1ccc(OC)c(Cl)c1Cl,59 °C
16,CC(C)(C)c1ccc(C(=O)Nc2cn3cc(-c4ccsc4)ccc3n2)cc1,261 to 263 °C
17,COc1cc(CN2CCC(=O)C(C(c3ccccc3)c3ccccc3)C2)ccc1O (stereo not drawn),131 to 132 °C
18,CC(=O)OCC(=O)Nc1cccc(-c2nnc(C(c3ccc(Cl)cc3)c3c(Cl)ccc(-n4ncc(=O)[nH]c4=O)c3Cl)o2)c1C (stereo not drawn),206 °C
19,c1ccc(Oc2ccc(C(c3ccccc3)(c3ccccn3)n3ccnc3)cc2)cc1 (stereo not drawn),137 to 140 °C
20,Nc1nc(N)nc(N2CC=CCC2)n1,200 to 202 °C
21,CNS(=O)(=O)c1ccc(Nc2nc(N)c(C(=O)c3sccc3C)s2)cc1,197 to 200 °C
22,Cc1cc(Oc2ncc(C(F)(F)F)cc2Cl)n[nH]1,93 to 95 °C
23,N#Cc1cc(N2C=CN=CC2)c[nH]c1=O,> 250 °C
